Laboratory results as given in patent US5270332A, “Cholesteral lowering agents” (Merck & Co., Inc., priority 1992, dated 1993).

Legend:
[1] = target: T1, squalene synthase (human HepG2 enzyme) (Homo sapiens, UniProt P37268); experiment: Squalene synthase assay, human HepG2 cell enzyme; format: biochemical; conditions: 3 μM 3H-farnesyl pyrophosphate, 30°, 20 minutes
T1 construct: The resulting pellet from the 100,000×g centrifugation, containing the squalene synthase, was resuspended in 5 ml of enzyme suspension buffer; endogenous in cells; host or cells: HepG2 cells (ATCC HB 8065), 100,000×g microsomal pellet
T1 sequence (P37268 1-417): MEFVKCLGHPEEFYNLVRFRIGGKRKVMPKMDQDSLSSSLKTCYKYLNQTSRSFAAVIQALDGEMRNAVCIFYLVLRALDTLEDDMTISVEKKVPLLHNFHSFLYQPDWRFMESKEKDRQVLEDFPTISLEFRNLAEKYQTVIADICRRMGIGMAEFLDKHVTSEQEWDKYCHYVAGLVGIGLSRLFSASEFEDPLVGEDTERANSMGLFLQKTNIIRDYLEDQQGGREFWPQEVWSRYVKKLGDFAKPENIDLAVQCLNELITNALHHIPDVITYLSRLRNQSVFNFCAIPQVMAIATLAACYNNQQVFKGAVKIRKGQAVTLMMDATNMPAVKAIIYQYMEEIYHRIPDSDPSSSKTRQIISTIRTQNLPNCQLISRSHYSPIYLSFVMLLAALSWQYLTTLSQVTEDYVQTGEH
Method: The intrinsic squalene synthase inhibitory activity of representative compounds of this invention was also measured by the standard in vitro protocol described below:
PREPARATION OF HUMAN HepG2 cell ENZYME
1. SOURCE: HEPG2 CELL LINE (Liver, hepatoblastoma, Human) ATCC No. HB 8065
2. CELL GROWTH AND MAINTENANCE
Culture Medium: Minimum essential medium (MEM) with non essential amino acids, sodium pyruvate, and 10% fetal bovine serum. The medium was changed twice weekly. […] The growth medium was prepared as listed below:
SUBCULTURE PROCEDURE: The medium was removed and washed with PBS (Phosphate-Buffered Saline 15.6 mM. pH 7.0). Fresh trypsin (0.25%)-EDTA (0.02%) with Hank's Balanced Salt solution was added and the flask was allowed to stand for a minute before the trypsin was removed. The flask was incubated at 37° C. until cells detached. Fresh medium was added and the cells were dispersed and dispensed into new flasks. Subcultivation ration: 1:6. […]
HARVEST: The medium was removed and the cells were washed with PBS. […] Cells 1 were counted (2.5×10^9 yield from 18 flasks (75cm^2)), and resuspended in 10 ml of 50 mM HEPES (N-[2-Hydroxyethyl]piperazine-N'-[2-ethane sulfonic acid]) containing 5 mM MgCl2, 2 mM MnCl2, 10 mM DTT, pH 7.5 (enzyme suspension buffer). […]

[2] = target: T2, squalene synthase (rat liver enzyme) (Rattus norvegicus, UniProt Q02769); experiment: Squalene synthase assay using rat liver microsomes; format: biochemical; conditions: [3H]farnesyl-pyrophosphate, 30° C., 20 minutes
T2 construct: from tissue; host or cells: liver microsomes of male Charles River CD rats fed 0.1% lovastatin for 4 days
T2 sequence (Q02769 1-416): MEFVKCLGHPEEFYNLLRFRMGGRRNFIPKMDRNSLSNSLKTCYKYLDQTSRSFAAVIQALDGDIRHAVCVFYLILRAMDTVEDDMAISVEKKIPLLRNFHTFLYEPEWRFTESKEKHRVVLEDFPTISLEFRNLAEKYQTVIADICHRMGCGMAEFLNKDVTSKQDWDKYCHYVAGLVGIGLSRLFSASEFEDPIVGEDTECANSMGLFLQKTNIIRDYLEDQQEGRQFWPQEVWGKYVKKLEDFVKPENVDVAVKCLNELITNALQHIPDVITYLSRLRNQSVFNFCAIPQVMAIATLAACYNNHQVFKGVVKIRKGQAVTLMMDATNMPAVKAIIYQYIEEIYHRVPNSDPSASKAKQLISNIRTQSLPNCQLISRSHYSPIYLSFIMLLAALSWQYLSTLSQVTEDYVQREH
Method: The squalene synthase assay using rat liver microsomes is described below:
Preparation of Rat Liver Microsomes
Male, Charles River CD rats (120 to 150 g) were fed a diet containing 0.1% lovastatin for 4 days. The livers from these rats were homogenized in 5 volumes (ml/g) of ice cold 50 mM HEPES (4-(2-hydroxyethyl)-1-piperazine ethanesulfonic acid), 5 mM EDTA (ethylenediaminetetraacetic acid) pH 7.5 with a Potter-Elvehjem type tissue grinder. The homogenate was centrifuged twice at 20,000×g for 15 minutes at 4° C., discarding the pellet each time. The supernatant was then centrifuged at 100,000×g for 1 hour at 4° C. The resulting microsomal pellet was resuspended in a volume of the above homogenizing buffer equal to one fifth the volume of the original homogenate. This microsomal preparation has a protein concentration of about 7 mg/ml. The microsomal suspensions were stored in aliquots at -70° C. […]
If a squalene epoxidase inhibitor (ingredient 7, above) is not used, the assay mix is degassed under a vacuum and flushed with N2. […] Five ml of scintillation fluid was added to the heptane solution and radioactivity was determined by liquid scintillation counting.
Percent inhibition is calculated by the formula: [formula]
IC50 values were determined by plotting the log of the concentration of the test compound versus the percentage inhibition. […]

Ras farnesylation = conditions: literature (Hancock et al.; Casey et al.; Schafer et al.); cited from earlier work

Row | IC50 [1] [nM] | IC50 [2] [nM] | SMILES | Inhibition of Ras farnesylation in vivo (Ras farnesylation)
1 | 31 | 5.6 | CC(O)C(O)CCCCC=CCCCCC(=O)OC1C(O)C2(CCC(C)C(O)C(C)CC=Cc3ccccc3)OC(C(=O)O)C(O)(C(=O)O)C1(C(=O)O)O2 (stereo not shown) [Compound A] | –
2 | – | – | CC[C@H](C)C(=O)O[C@H]1CCC=C2C=C[C@H](C)[C@H](CC[C@@H]3C[C@@H](O)CC(=O)O3)[C@H]21 [compactin] | Inhibition of Ras farnesylation in vivo has been demonstrated
3 | – | – | CC[C@H](C)C(=O)O[C@H]1C[C@@H](C)C=C2C=C[C@H](C)[C@H](CC[C@@H]3C[C@@H](O)CC(=O)O3)[C@H]21 [lovastatin] | Inhibition of Ras farnesylation in vivo has been demonstrated
